The values that follow come from paper PMC7067379, “Mapping the S1 and S1’ subsites of cysteine proteases with new dipeptidyl nitrile inhibitors as trypanocidal agents” (PLoS Neglected Tropical Diseases, 2020).

Where two headings read alike, the source gives them in different places.

Series [1] has as its system T. cruzi infection. The arrangement: method as in PMID 14580960. As to conditions: mice ref 10, 11; cited from earlier work.
Series [2] deals with T. cruzi. The arrangement: method as in PMID 14580960. As to conditions: dogs ref 10, 11; cited from earlier work.
The conditions of series [3]: dog, in vivo; cited from earlier work.
Series [4] addresses cathepsin B (CatB) (Homo sapiens, UniProt P07858). As to the kind of experiment: Cathepsin B enzyme inhibition. As to conditions: for remaining activity (%) at 10 μM, CatB: replicates = 2, n.i. = no inhibition observed at 10 μM; for Ki: SD lower than 15%, read-out: pKi CatB (converted). The series is classed as biochemical.
In series [5] the target is T1, Human recombinant cathepsin K (Homo sapiens, UniProt P43235).
T1 sequence (P43235 115-329): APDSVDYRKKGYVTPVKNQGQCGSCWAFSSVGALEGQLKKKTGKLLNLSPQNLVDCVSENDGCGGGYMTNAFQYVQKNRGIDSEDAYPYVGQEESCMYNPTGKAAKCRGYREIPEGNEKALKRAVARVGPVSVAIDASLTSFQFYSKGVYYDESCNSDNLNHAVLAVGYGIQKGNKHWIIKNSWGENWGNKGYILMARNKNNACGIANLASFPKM
Briefly: Cathepsin K assay. The series is classed as biochemical. Conditions: for Ki: SD lower than 15%, read-out: pKi CatK (converted). Put shortly:
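Recombinant human cathepsin K, pre-activated 30 min at 37 °C in pH 5.0 citrate buffer with 5 mM DTT and CHAPS, was used at 1.73 ng/mL final. Reaction was started by adding enzyme to Z-Leu-Arg-AMC plus inhibitor (2% DMSO). AMC fluorescence (ex 360/em 440 nm) was followed 20 min at 25 °C.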

For series [6], the target named is cathepsin L (CatL) (Homo sapiens, UniProt P07711). Briefly: Cathepsin L enzyme inhibition. As to conditions: for Ki: SD lower than 15%, read-out: pKi CatL (converted). The series is classed as biochemical.
Series [7] deals with cathepsin S (CatS) (Homo sapiens, UniProt P25774). Briefly: Cathepsin S enzyme inhibition. The series is classed as biochemical. As to conditions: for Ki: SD lower than 15%, read-out: pKi CatS (converted). As to the method:
(§1) Enzyme inhibition studies for Cz and LmCPB were performed as previously described for Cz. The experimental procedures are described in the Supporting Information (see chapter S3). Cathepsins B, L, S were assayed as reported.

Series [8] deals with recombinant cruzain (Cz) (Trypanosoma cruzi, UniProt P25779). As to the kind of experiment: Cruzain enzyme inhibition. The series is classed as biochemical. As to the method: as §1
Series [9] deals with Leishmania mexicana CPB (LmCPB) (Leishmania mexicana, UniProt P36400). As to the kind of experiment: LmCPB enzyme inhibition. The series is classed as biochemical. As to the method: as §1
The subject of series [10] is T. cruzi Tulahuen LacZ strain, intracellular amastigote forms. As to the kind of experiment: In vitro trypanocidal activity on intracellular amastigote forms (Tulahuen strain). The series is classed as cell-based, Trypanosoma cruzi. Conditions: Trypanosoma cruzi, TULAHUEN
Put shortly:
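LLCMK2 cells infected with Tulahuen LacZ trypomastigotes for 24 h at 37°C, 5% CO2; extracellular parasites washed away. Amastigote-infected cells exposed 72 h to compound, 1.95–250 μM serial dilutions, in DMSO. β-galactosidase read-out with CPRG substrate (400 μM, 0.3% Triton X-100, pH 7.4).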

The nature of series [11]: Mammalian cytotoxicity assay (MTT).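 Also: Read-out is absorbance at 570 nm of formazan taken up in DMSO.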 The series is classed as cell-based. As to conditions: rhesus monkey, LLCMK2 cells.
Method: (§2) LLCMK2 cells were cultured in 96-well plates at a concentration of 5 x 10^4 cells/ml. After 48 h, the plates were washed twice with PBS and 200 μL RPMI medium was added with serial dilutions of the compounds and benznidazole (1.95 μM to 250 μM) in triplicate. After 72 h at 37 °C, the cytotoxic activity of the compounds was determined by the classical MTT [3- (4,5-dimethylthiazol-2-yl) -2,5-diphenyltetrazolium bromide] method. Briefly, 50 μL MTT dissolved in PBS (2.0 mg mL^-1) was added to each well and the plates were incubated for 4 h at 37 °C. The formed formazan crystals were dissolved with DMSO (50 μL/well) and the absorbance of the samples was measured by spectrophotometer at 570 nm after 30 min.
Series [12] has as its system LLCMK2 cells. Briefly: Mammalian cytotoxicity assay (MTT).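 Also: Read-out is absorbance at 570 nm of formazan taken up in DMSO.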 The series is classed as cell-based. As to conditions: LLCMK2, 72 h, MTT; Table 2.
Method: as §2
The mark [13] stands for this setting: 10 μM, replicates = 2, n.i. = no inhibition observed at 10 μM.
The mark [14] stands for this setting: T. cruzi amastigote form, S1 Table, read-out: pEC50 (converted).
Where [15] appears, read: S1 Table, maximum concentration used 250 µM, read-out: CC50.
Setting [16] is: SD lower than 15%, read-out: pKi Cz (converted).
[17] abbreviates: SD lower than 15%, read-out: pKi LmCPB (converted).
[18] abbreviates: read-out: EC50 T. cruzi, S1 Table, maximum concentration used 250 µM.
The mark [19] stands for this setting: read-out: pEC50, T. cruzi amastigote form (converted), S1 Table.
The mark [20] stands for this setting: relative to compound 11, sign not given, direction by cell colour or wording.
Setting [21] is: S1 Table, maximum concentration used 250 µM, read-out: EC50 T. cruzi.

cathepsin L (CatL), sequence (P07711 114-333): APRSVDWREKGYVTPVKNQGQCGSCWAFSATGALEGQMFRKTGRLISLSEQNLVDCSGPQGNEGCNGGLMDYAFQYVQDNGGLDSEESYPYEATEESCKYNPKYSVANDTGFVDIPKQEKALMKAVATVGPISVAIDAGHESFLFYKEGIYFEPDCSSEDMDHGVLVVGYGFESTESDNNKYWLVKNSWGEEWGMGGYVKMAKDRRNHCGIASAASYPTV
Leishmania mexicana CPB (LmCPB), sequence (P36400 126-443): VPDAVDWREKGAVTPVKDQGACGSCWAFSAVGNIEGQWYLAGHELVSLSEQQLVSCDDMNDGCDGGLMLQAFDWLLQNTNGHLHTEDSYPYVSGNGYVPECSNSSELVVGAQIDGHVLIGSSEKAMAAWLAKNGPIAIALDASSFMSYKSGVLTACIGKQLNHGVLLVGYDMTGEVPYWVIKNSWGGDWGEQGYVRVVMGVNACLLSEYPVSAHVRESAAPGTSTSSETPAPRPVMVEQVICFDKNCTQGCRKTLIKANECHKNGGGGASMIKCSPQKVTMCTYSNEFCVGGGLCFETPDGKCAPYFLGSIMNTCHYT
cathepsin S (CatS), sequence (P25774 115-331): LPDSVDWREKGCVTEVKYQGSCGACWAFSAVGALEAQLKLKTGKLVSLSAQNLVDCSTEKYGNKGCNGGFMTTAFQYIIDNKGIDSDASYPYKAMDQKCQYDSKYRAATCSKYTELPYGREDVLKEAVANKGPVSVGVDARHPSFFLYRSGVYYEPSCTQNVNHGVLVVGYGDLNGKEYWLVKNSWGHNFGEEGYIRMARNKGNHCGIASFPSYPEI
recombinant cruzain (Cz), sequence (P25779 123-337): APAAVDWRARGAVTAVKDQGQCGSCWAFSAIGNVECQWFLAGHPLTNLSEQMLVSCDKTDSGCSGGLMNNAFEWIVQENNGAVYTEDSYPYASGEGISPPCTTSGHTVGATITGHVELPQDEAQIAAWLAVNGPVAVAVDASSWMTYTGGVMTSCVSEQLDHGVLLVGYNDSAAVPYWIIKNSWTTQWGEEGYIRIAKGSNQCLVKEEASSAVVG

For `CN1CCN(C(=O)N[C@@H](Cc2ccccc2)C(=O)N[C@H](/C=C/S(=O)(=O)c2ccccc2)CCc2ccccc2)CC1` [Compound K777], the “rescue from lethal infection” value in series [1] is recorded as “rescue mice of a lethal experimental T. cruzi infection”. The “effect on parasite growth” value in series [2] is “reduce parasite growth”. The side effects result in series [3] was “substantial side effects”.

In turn, `C[C@H](OCc1ccccc1)[C@H](C#N)NC(=O)[C@H](Cc1ccccc1)NC(=O)c1cc(C(C)(C)C)nn1C` [Compound 57, N-((S)-1-(((1S,2S)-2-(Benzyloxy)-1-cyanopropyl)amino)-1-oxo-3-phenylpropan-2-yl)-3-(tert-butyl)-1-methyl-1H-pyrazole-5-carboxamide] returned a melting point of 123 to 124 °C. Also, the “remaining activity (%) at 10 μM, CatB” value in series [4] is listed as “n.i.^c”. For the same molecule, the remaining activity at 10 µM in series [5] (10 μM, replicates = 2, n.i. = no inhibition observed at 10 μM, read-out: remaining activity (%) at 10 μM, CatK) is 97%. In addition, in [6] (setting [13]), the remaining activity at 10 µM is 85%. Moreover, the “remaining activity (%) at 10 μM, CatS” value in series [7] (setting [13]) is listed as “n.i.^c”. Further, the remaining activity at 10 µM in series [8] (10 μM, replicates = 2) amounted to 75%. Moreover, the remaining activity at 10 µM in series [9] (10 μM, replicates = 2) stood at 72%. In series [10] (72 h, amastigote, Tulahuen strain, 72 h, Table 2, read-out: EC50 trypanocidal activity), the EC50 is 4300 ± 320 nM. Besides, the EC50 in series [10] (setting [14]) was 3980 nM. Moreover, the CC50 at 72 h in series [11] (LLCMK2, 72 h, MTT, Table 2, read-out: CC50 cytotoxicity) was about 125000 nM. Moreover, the CC50 at 72 h in series [11] (setting [15]) is 141000 nM. The CC50 in [12] was over 100000 nM.

In turn, `N#CC1(NC(=O)[C@H](Cc2cccc(Cl)c2)NC(=O)c2ccccc2)CC1` [Compound 7, (S)-N-(3-(3-Chlorophenyl)-1-((1-cyanocyclopropyl)amino)-1-oxopropan-2-yl)benzamide] registered a melting point of 213 to 215 °C. Further, the Ki in series [4] is 3160 nM. In addition, the Ki in series [5] was 631 nM. In addition, the Ki in series [6] was 50.1 nM. Besides, the Ki in series [7] is 20 nM. Moreover, the Ki in series [8] (setting [16]) is 126 nM. Also, in [9] (setting [17]), the Ki is 631 nM. In addition, the EC50 in series [10] (setting [18]) was over 100000 nM. For the same molecule, the EC50 in series [10] (setting [19]) is over 100000 nM. Besides, in series [11] (setting [15]), the CC50 at 72 h worked out at 4000 nM.

In turn, `CC(C)C[C@H](NC(=O)c1cnc2[nH]ccc2c1)C(=O)NC1(C#N)CC1` [Compound 18, (S)-N-(1-((1-Cyanocyclopropyl)amino)-4-methyl-1-oxopentan-2-yl)-1H-pyrrolo[2,3-b]pyridine-5-carboxamide] yielded a melting point of 79 to 80 °C. Further, the Ki in series [4] was 31600 nM. Further, the Ki in series [5] was 2 nM. For the same molecule, in series [6], the Ki was 79.4 nM. Further, in [7], the Ki is 50.1 nM. In addition, the Ki in series [8] is 20 nM. Besides, the “difference in pKi, Cz” value in series [8] (setting [20]) is -0.7. The Ki in [9] is 63.1 nM. In addition, the “difference in pKi, LmCPB” value in series [9] (setting [20]) was -0.5. In addition, the EC50 in [10] (setting [21]) is over 100000 nM. In addition, the EC50 in [10] (setting [14]) is over 100000 nM. Moreover, in series [11] (setting [15]), the CC50 at 72 h is over 100000 nM.

In the case of `CC(C)C[C@H](NC(=O)c1ccc(N)nc1)C(=O)NC1(C#N)CC1` [Compound 17, (S)-6-Amino-N-(1-((1-cyanocyclopropyl)amino)-4-methyl-1-oxopentan-2-yl)nicotinamide], the melting point was 100 to 101 °C. Besides, the “remaining activity (%) at 10 μM, CatB” value in series [4] was “n.i.^c”. Moreover, in [5], the Ki is 10 nM. Further, the Ki in [6] was 316 nM. Further, the Ki in series [7] was 25.1 nM. Moreover, the Ki in series [8] (setting [16]) is 79.4 nM. Besides, the Ki in series [9] (setting [17]) was 158 nM. For the same molecule, the EC50 in series [10] (setting [21]) is over 100000 nM. Further, in series [10] (setting [14]), the EC50 is over 100000 nM. In addition, the CC50 at 72 h in series [11] (setting [15]) was over 100000 nM.

`Cn1nc(C(C)(C)C)cc1C(=O)N[C@@H](Cc1cccc(Cl)c1)C(=O)NC1(C#N)CC1` [Compound 8, (S)-3-(tert-Butyl)-N-(3-(3-chlorophenyl)-1-((1-cyanocyclopropyl)amino)-1-oxopropan-2-yl)-1-methyl-1H-pyrazole-5-carboxamide] registered a melting point of 152 to 154 °C. Also, in series [4], the Ki is 3980 nM. For the same molecule, in series [5], the Ki is 398 nM. For the same molecule, the Ki in [6] is 2.51 nM. In addition, in series [7], the Ki is 200 nM. Further, in series [8] (setting [16]), the Ki is 39.8 nM. Besides, the Ki in [9] (setting [17]) is 200 nM. In addition, the EC50 in series [10] (amastigote forms of T. cruzi (Tuhaluen strain), Figs 12-14, unit inferred) is over 100000 nM. In addition, in [10] (setting [18]), the EC50 is over 100000 nM. The EC50 in series [10] (setting [19]) is over 100000 nM. The CC50 at 72 h in series [11] (setting [15]) was over 100000 nM.
